The values that follow come from ChEMBL document CHEMBL5505975, “Design, synthesis and biological evaluation of CDC20 inhibitors for treatment of triple-negative breast cancer” (Eur J Med Chem, 2024).

The source made the active and inactive calls. No cut-off for these calls is given here.

What is called IC50 is the midpoint of a concentration-inhibition curve.

The subject of data set [1] is MDA-MB-231. Kind of data set: Cell cycle arrest in human MDA-MB-231 cells assessed as G2 phase cells at 20 uM incubated for 24 hrs by PI staining based flow cytometric analysis (reference value: 14.6%). In kind it is functional.
Data set [2] relates to MDA-MB-231. Briefly: Cell cycle arrest in human MDA-MB-231 cells assessed as G1 phase cells at 5 uM incubated for 48 hrs by PI staining based flow cytometric analysis (reference value: 76.7%). It counts as functional. A general note: In flow cytometry, cells or beads pass a laser one at a time.
Data set [3] is described as follows: Toxicity in female BALB/C mouse implanted with mouse 4T1 cells assessed as liver damage at 20 to 50 mg/kg, iv administered every two days for 21 days by H and E staining based analysis. It counts as organism-based. The following applies: in vivo, 504 h, dose 20-50 mg/kg, time 21 day.
For another data set, the system named is 4T1. Kind of data set: Antitumor activity against mouse 4T1 cells implanted in female BALB/C mouse assessed as inhibition of tumor weight at 50 mg/kg, po administered every two days for 21 days relative to control. The following applies: time 21.0 day. In kind it is functional, organism-based.
Data set [4] deals with MDA-MB-231. Briefly: Induction of apoptosis in human MDA-MB-231 cells assessed as early apoptotic cells at 10 uM incubated for 48 hrs by Annexin V-FITC/PI staining based flow cytometric analysis (reference value: 2.25 %). It counts as functional.
A short description of data set [5]: Toxicity in female BALB/C mouse implanted with mouse 4T1 cells assessed as change in serum BUN level at 20 to 50 mg/kg, iv administered every two days for 21 days. In kind it is organism-based. The settings on record: in vivo, 504 h, dose 20-50 mg/kg, time 21 day.
The nature of data set [6]: Toxicity in female BALB/C mouse implanted with mouse 4T1 cells assessed as change in serum AST level at 20 to 50 mg/kg, iv administered every two days for 21 days. In kind it is organism-based. The settings on record: in vivo, 504 h, dose 20-50 mg/kg, time 21 day.
The nature of data set [7]: Toxicity in female BALB/C mouse implanted with mouse 4T1 cells assessed as change in RBC level at 20 to 50 mg/kg, po administered every two days for 21 days by routine blood analysis. It counts as organism-based. The following applies: in vivo, 504 h, dose 20-50 mg/kg, time 21 day.
Data set [8] in a line: Toxicity in female BALB/C mouse implanted with mouse 4T1 cells assessed as lung damage at 20 to 50 mg/kg, iv administered every two days for 21 days by H and E staining based analysis. In kind it is organism-based. The following applies: in vivo, 504 h, dose 20-50 mg/kg, time 21 day.
A short description of data set [9]: Toxicity in female BALB/C mouse implanted with mouse 4T1 cells assessed as effect on body weight at 20 to 50 mg/kg, iv administered every two days for 21 days. The following applies: in vivo, 504 h, dose 20-50 mg/kg, time 21 day. In kind it is organism-based.
Data set [10] in a line: Toxicity in female BALB/C mouse implanted with mouse 4T1 cells assessed as change in number of platelets at 20 to 50 mg/kg, po administered every two days for 21 days by routine blood analysis. It counts as organism-based. The settings on record: in vivo, 504 h, dose 20-50 mg/kg, time 21 day.
Data set [11] can be described thus: Toxicity in female BALB/C mouse implanted with mouse 4T1 cells assessed as change in serum CK level at 20 to 50 mg/kg, iv administered every two days for 21 days. It counts as organism-based. The following applies: in vivo, 504 h, dose 20-50 mg/kg, time 21 day.
Data set [12] has as its system MDA-MB-231. Kind of data set: Effect on cell morphology in human MDA-MB-231 cells at 2.5 to 10 uM incubated for 24 hrs by wound healing assay. In kind it is functional, cell-based. The following applies: dose 2.5-10 µM.
The subject of a further data set is A549. Briefly: Antiproliferative activity against human A549 cells assessed as reduction in cell viability incubated for 96 hrs by MTT assay. The settings on record: A549, 96 h.
A short description of data set [13]: Toxicity in female BALB/C mouse implanted with mouse 4T1 cells assessed as change in serum LDH level at 20 to 50 mg/kg, po administered every two days for 21 days. The settings on record: in vivo, 504 h, dose 20-50 mg/kg, time 21 day. In kind it is organism-based.
Another data set concerns MCF7. Kind of data set: Antiproliferative activity against human MCF7 cells assessed as reduction in cell viability incubated for 96 hrs by MTT assay. The settings on record: MCF7, 96 h. (In general: Tetrazolium assays rely on reduction of a dye to a coloured formazan, in cell work by metabolically active cells.)
The test system of data set [14] is MDA-MB-231. Briefly: Cell cycle arrest in human MDA-MB-231 cells assessed as S phase cells at 20 uM incubated for 48 hrs by PI staining based flow cytometric analysis (reference value: 28.7%). It counts as functional.
For data set [15], the system named is MDA-MB-231. Briefly: Induction of apoptosis in human MDA-MB-231 cells assessed as late apoptotic cells at 2.5 uM incubated for 48 hrs by Annexin V-FITC/PI staining based flow cytometric analysis (reference value: 1.06%). It counts as functional.
Data set [16] relates to MDA-MB-231. Briefly: Cell cycle arrest in human MDA-MB-231 cells assessed as S phase cells at 20 uM incubated for 48 hrs by PI staining based flow cytometric analysis (reference value: 16.0%). In kind it is functional.
The subject of data set [17] is MDA-MB-231. Briefly: Induction of autophagy in human MDA-MB-231 cells assessed as appearance of ring shaped aggregates at 5 to 20 uM incubated for 48 hrs by DAPI staining based immunofluorescence analysis. It counts as functional, cell-based. The following applies: dose 5-20 µM.

Consider `CCC(=O)NC(n1cnc2c(Nc3cc(OC)c(OC)c(OC)c3)nc(N)nc21)C(Cl)(Cl)Cl` (stereo not given), for which the Activity in the data set with MDA-MB-231 [1] is given as 40.1%; in the data set on MDA-MB-231 [2], 62.8%; in [3], “Non-Toxic”; in the data set with MDA-MB-231 [4], 4.54%; in data set [5], “Non-Toxic”; in [6], “Non-Toxic”. Moreover, the Activity result in data set [7], in [8], in data set [9], in [10], in data set [11] and in [13] was “Non-Toxic” throughout. The results for the Activity in the data set on MDA-MB-231 [14], with MDA-MB-231 [15] and in the data set on MDA-MB-231 [16] were 13.3%, 1.4% and 11.6%, respectively. In addition, the result with 4T1 and in the data set with MDA-MB-231 [12] was inactive. Also, the IC50 was 6.47 µM with A549 and 3.27 µM in the data set on MCF7. In addition, the outcome in the data set with MDA-MB-231 [17] was Active.
